# Laboratory results reported in article PMC9232612, “A phase 1b randomised controlled trial of a glucagon-like peptide-1 and glucagon receptor dual agonist IBI362 (LY3305677) in Chinese patients with type 2 diabetes” (Nature Communications, 2022).
# Values joined by “and” are separate entries in the source; they are usually repeats but may differ in a detail not shown here. Identical values can stand only once.
# Experiments:
# Format in all cases: in vivo, human
# [1] = system: Chinese patients with T2D; assay: Mixed-meal tolerance test (MTT): plasma glucose and glucose AUC0-4 h; conditions: for Percent change from baseline to week 12 in post-MTT glucose AUC0-4 h, LS mean: MMRM
# Protocol: HbA1c (2200101, Bio-Rad, USA), blood glucose (05168791190, Roche Diagnostics, Germany), insulin (12017547122, Roche Diagnostics, Germany), C peptide (03184897190, Roche Diagnostics, Germany), total GLP-1 (GLP-1 [7–36] amide and its metabolite, GLP-1 [9–36] amide, 10-1278-01, Mercodia AB, Sweden) and OXM (AL-139, AnshLabs, USA) tests were performed according to the manufactures’ instruction manuals in a central laboratory (KingMed Diagnostics, Guangzhou, China). HbA1c was measured using a Bio-rad D-100 Haemoglobin Testing System (Bio-rad). Blood glucose was measured using a Roche Cobas c702 analyser (Roche Diagnostics). Insulin and C peptide were measured using a Roche […] analyser (Roche Diagnostics). GLP-1 and OXM were measured using a Tecan Infinite M Plex microplate reader (TECAN).
# Standard non-compartmental pharmacokinetics methods were used to analyze IBI362 plasma concentration data using Pkanalix 2020R1 (Lixoft, Antony, France). Secondary efficacy outcomes included change from baseline to week 12 in HbA1c, fasting plasma glucose (FPG), fasting insulin levels, change from baseline to week 12 in post-mixed-meal tolerance test (post-MTT) glucose, insulin, C peptide, GLP-1 and OXM levels, as well as seven-point self-measured blood glucose (SMBG) profile.
# The analyses for change from baseline in HbA1c, FPG, post-MTT glucose AUC0–4 h and body weight were performed using the mixed-effect model for repeated measures (MMRM) with least-squares means and standard error provided. The MMRM included the corresponding baseline value, treatment, visit and treatment-by-visit as fixed effects and patient as a random effect. Mean change or mean percent change from baseline were analysed using a restricted maximum likelihood (REML)‐based repeated measures approach in combination with the Newton Raphson Algorithm. The fix effect of visit was fitted as a repeated effect and an unstructured covariance matrix was used. In case of non-converge, matrix like Variance Components and Compound Symmetry will be tested in a subsequent order until model‐convergence is achieved. The Kenward-Roger degree of freedom was used in estimating fixed effects. No missing data imputation was conducted. For HbA1c, FPG and body weight, point estimate of treatment difference versus placebo and 90% CI were provided for each IBI362 dose group and the dulaglutide group, with nominal p values. […]
# 3. Standard meal test (MTT) collection measures included: insulin, C-peptide, plasma glucose, glucagon, endogenous OXM, and endogenous GLP-1. The sampling points include: fasting, 30 min, 1h, 2h, 3h and 4h.
# A total of 9 mL blood will be collected from each blood collection point. See the manual of the central laboratory for the detailed operation process. Fasting state refers to fasting for 10 hours. [ The standard meal is
# instant noodles. The master Kang roast beef noodles (bucket noodles) purchased by the sponsor in a unified manner are removed from the oil bag. The noodles are soaked in boiled water and then removed. The seasoning
# bag is added and mixed well. The time is counted from the first bite of eating. The noodles are eaten within 10 minutes, and 200 mL of water is drunk; or the instant noodles are directly opened with 200 mL of boiled
# water to ensure that the noodles are eaten and the water or soup is drunk]. Visit days when MTT test is performed: 1 day prior to Cycle 1 administration, Day 80 (D80). […]
# ● Test by central laboratory
# Body weight = conditions: for Percent change from baseline to week 12 in body weight, single patients: each line a single patient; for Percent change from baseline in body weight, LS mean / Percent change from baseline in body weight, LS mean (SE) / Body weight (percent CFB): ETD versus placebo, LS mean (90% CI): MMRM; for Percent change from baseline in body weight, LS mean (SE) / Body weight (percent CFB): ETD versus placebo, LS mean (90% CI): week 12
# Protocol: Exploratory outcomes included change from baseline in body weight, waist circumference, body-mass index (BMI) and change in homeostatic model assessment of β-cell function (HOMA-β) and insulin resistance (HOMA-IR).
# The analyses for change from baseline in HbA1c, FPG, post-MTT glucose AUC0–4 h and body weight were performed using the mixed-effect model for repeated measures (MMRM) with least-squares means and standard error provided. The MMRM included the corresponding baseline value, treatment, visit and treatment-by-visit as fixed effects and patient as a random effect. Mean change or mean percent change from baseline were analysed using a restricted maximum likelihood (REML)‐based repeated measures approach in combination with the Newton Raphson Algorithm. The fix effect of visit was fitted as a repeated effect and an unstructured covariance matrix was used. In case of non-converge, matrix like Variance Components and Compound Symmetry will be tested in a subsequent order until model‐convergence is achieved. The Kenward-Roger degree of freedom was used in estimating fixed effects. No missing data imputation was conducted. For HbA1c, FPG and body weight, point estimate of treatment difference versus placebo and 90% CI were provided for each IBI362 dose group and the dulaglutide group, with nominal p values.
# [2] = system: Chinese patients with T2D; assay: Lipids (total cholesterol, LDL cholesterol, triglycerides); conditions: mean
# Protocol: Fig. S8: Change from baseline in lipids levels at week 12.
# Data are plotted as means +/- SD. IBI362 3.0 mg n = 7; IBI362 4.5 mg n = 5; IBI362 6.0 mg n = 8; Pooled placebo n = 10; Dulaglutide n = 6. CFB = change from baseline; LDL = low density lipoprotein; SD = standard deviation. Source data are provided as a Source Data file.
# Total cholesterol LDL cholesterol Triglycerides
# CFB in lipids at week 12 (mmol/L),
# (1 picture or pasted object on this page, not shown here) […]
# Table 4 Routine laboratory safety assessments […]
# Lipids Total cholesterol (TC), triglyceride (TG), high-density lipoprotein cholesterol (HDL-C), and low-density lipoprotein cholesterol (LDL-C). […]
compound,measurement,setting,value
CC(C)C[C@H](NC(=O)[C@H](CC(C)C)NC(=O)[C@H](Cc1c[nH]c2ccccc12)NC(=O)[C@H](CCC(=O)O)NC(=O)[C@@H](NC(=O)[C@H](Cc1ccccc1)NC(=O)[C@H](CCC(=O)O)NC(=O)[C@H](CCCCNC(=O)COCCOCCNC(=O)COCCOCCNC(=O)CC[C@H](NC(=O)CCCCCCCCCCCCCCCCCCC(=O)O)C(=O)O)NC(=O)[C@H](C)NC(=O)[C@H](CCCCN)NC(=O)[C@H](CCCCN)NC(=O)[C@H](CCC(=O)O)NC(=O)[C@H](CC(=O)O)NC(=O)[C@H](CC(C)C)NC(=O)[C@H](Cc1ccc(O)cc1)NC(=O)[C@H](CCCCN)NC(=O)[C@H](CO)NC(=O)[C@H](Cc1ccc(O)cc1)NC(=O)[C@H](CC(=O)O)NC(=O)[C@H](CO)NC(=O)[C@@H](NC(=O)[C@H](Cc1ccccc1)NC(=O)[C@@H](NC(=O)CNC(=O)[C@H](CCC(N)=O)NC(=O)C(C)(C)NC(=O)[C@@H](N)Cc1c[nH]cn1)[C@@H](C)O)[C@@H](C)O)C(C)C)C(=O)N[C@@H](CCC(=O)O)C(=O)NCC(=O)NCC(=O)N1CCC[C@H]1C(=O)N[C@@H](CO)C(=O)N[C@@H](CO)C(=O)NCC(N)=O [IBI362],"Percent change from baseline to week 12 in post-MTT glucose AUC0-4 h, LS mean","[1]; 3.0 mg cohort, n=8",−37.0% and -36.99%
same,"Percent change from baseline to week 12 in post-MTT glucose AUC0-4 h, LS mean","[1]; 4.5 mg cohort, n=8",−38.9% and -38.89%
same,"Percent change from baseline to week 12 in post-MTT glucose AUC0-4 h, LS mean","[1]; 6.0 mg cohort, n=8",−43.9% and -43.88%
same,"Glucose during MTT, mean","[1]; week 12, 0 min, 3.0 mg cohort, n=7",7.91 mmol/L
same,"Glucose during MTT, mean","[1]; week 12, 0 min, 4.5 mg cohort, n=5",7.75 mmol/L
same,"Glucose during MTT, mean","[1]; week 12, 0 min, 6.0 mg cohort, n=8",7.11 mmol/L
same,"Glucose during MTT, mean","[1]; week 12, 30 min, 3.0 mg cohort, n=7",10.06 mmol/L
same,"Glucose during MTT, mean","[1]; week 12, 30 min, 4.5 mg cohort, n=5",9.84 mmol/L
same,"Glucose during MTT, mean","[1]; week 12, 30 min, 6.0 mg cohort, n=8",9.53 mmol/L
same,"Glucose during MTT, mean","[1]; week 12, 60 min, 3.0 mg cohort, n=7",13.39 mmol/L
same,"Glucose during MTT, mean","[1]; week 12, 60 min, 4.5 mg cohort, n=5",11.82 mmol/L
same,"Glucose during MTT, mean","[1]; week 12, 60 min, 6.0 mg cohort, n=8",11.83 mmol/L
same,"Glucose during MTT, mean","[1]; week 12, 120 min, 3.0 mg cohort, n=7",11.24 mmol/L
same,"Glucose during MTT, mean","[1]; week 12, 120 min, 4.5 mg cohort, n=5",10.28 mmol/L
same,"Glucose during MTT, mean","[1]; week 12, 120 min, 6.0 mg cohort, n=8",9.52 mmol/L
same,"Glucose during MTT, mean","[1]; week 12, 180 min, 3.0 mg cohort, n=7",8.73 mmol/L
same,"Glucose during MTT, mean","[1]; week 12, 180 min, 4.5 mg cohort, n=5",8.34 mmol/L
same,"Glucose during MTT, mean","[1]; week 12, 180 min, 6.0 mg cohort, n=8",7.51 mmol/L
same,"Glucose during MTT, mean","[1]; week 12, 240 min, 3.0 mg cohort, n=7",7.23 mmol/L
same,"Glucose during MTT, mean","[1]; week 12, 240 min, 4.5 mg cohort, n=5",7.08 mmol/L
same,"Glucose during MTT, mean","[1]; week 12, 240 min, 6.0 mg cohort, n=8",6.63 mmol/L
same,body weight reductions from baseline to week 12 (up to),Body weight; across IBI362 cohorts,up to 5.4%
same,"Percent change from baseline to week 12 in body weight, single patients",Body weight; 3.0 mg cohort,-0.9% and -2.2% and 0.6% and -1.0% and 0.0% and -5.1%
same,"Percent change from baseline to week 12 in body weight, single patients",Body weight; 4.5 mg cohort,-15.9% and -3.7% and 1.3% and -1.6% and -6.0%
same,"Percent change from baseline in body weight, LS mean","Body weight; week 4, 3.0 mg cohort, n=8",0.1%
same,"Percent change from baseline in body weight, LS mean","Body weight; week 4, 4.5 mg cohort, n=8",-1.1%
same,"Percent change from baseline in body weight, LS mean","Body weight; week 4, 6.0 mg cohort, n=8",-1.7%
same,"Percent change from baseline in body weight, LS mean","Body weight; week 8, 3.0 mg cohort, n=8",-0.2%
same,"Percent change from baseline in body weight, LS mean","Body weight; week 8, 4.5 mg cohort, n=8",-2.1%
same,"Percent change from baseline in body weight, LS mean","Body weight; week 8, 6.0 mg cohort, n=8",-3.3%
same,"Percent change from baseline in body weight, LS mean (SE)","Body weight; 3.0 mg cohort, n=8",−0.9 (1.3) % and −0.9%
same,"Body weight (percent CFB): ETD versus placebo, LS mean (90% CI)",Body weight; 3.0 mg cohort,"0.1 ( −2.6, 2.8) %"
same,"Percent change from baseline in body weight, LS mean (SE)","Body weight; 4.5 mg cohort, n=8",-5.0%
same,"Body weight (percent CFB): ETD versus placebo, LS mean (90% CI)",Body weight; 4.5 mg cohort,"−4.0 (−6.7, −1.2) % and −4.0%"
same,"Percent change from baseline in body weight, LS mean (SE)","Body weight; 6.0 mg cohort, n=8",-5.4%
same,"Body weight (percent CFB): ETD versus placebo, LS mean (90% CI)",Body weight; 6.0 mg cohort,"−4.4 (−7.0, −1.7) % and −4.4%"
same,Change from baseline to week 12 in LDL cholesterol,[2]; IBI362 3.0 mg,-0.33 mmol/L
same,Change from baseline to week 12 in total cholesterol,[2]; IBI362 3.0 mg,-0.71 mmol/L
same,Change from baseline to week 12 in triglycerides,[2]; IBI362 3.0 mg,-0.83 mmol/L
same,Change from baseline to week 12 in LDL cholesterol,[2]; IBI362 4.5 mg,-1.15 mmol/L
same,Change from baseline to week 12 in total cholesterol,[2]; IBI362 4.5 mg,-1.68 mmol/L
same,Change from baseline to week 12 in triglycerides,[2]; IBI362 4.5 mg,-0.23 mmol/L
same,Change from baseline to week 12 in LDL cholesterol,[2]; IBI362 6.0 mg,-0.90 mmol/L
same,Change from baseline to week 12 in total cholesterol,[2]; IBI362 6.0 mg,-1.17 mmol/L
same,Change from baseline to week 12 in triglycerides,[2]; IBI362 6.0 mg,-0.66 mmol/L
"Dulaglutide: open-label active reference, subcutaneously once weekly at a fixed dose of 1.5 mg [reference compound]","Percent change from baseline to week 12 in post-MTT glucose AUC0-4 h, LS mean","[1]; 1.5 mg once weekly, n=6",-41.70%
same,"Glucose during MTT, mean","[1]; week 12, 0 min, 1.5 mg once weekly, n=6",7.18 mmol/L
same,"Glucose during MTT, mean","[1]; week 12, 30 min, 1.5 mg once weekly, n=6",9.32 mmol/L
same,"Glucose during MTT, mean","[1]; week 12, 60 min, 1.5 mg once weekly, n=6",11.86 mmol/L
same,"Glucose during MTT, mean","[1]; week 12, 120 min, 1.5 mg once weekly, n=6",9.62 mmol/L
same,"Glucose during MTT, mean","[1]; week 12, 180 min, 1.5 mg once weekly, n=6",7.11 mmol/L
same,"Glucose during MTT, mean","[1]; week 12, 240 min, 1.5 mg once weekly, n=6",6.79 mmol/L
same,"Percent change from baseline to week 12 in body weight, single patients",Body weight; 1.5 mg once weekly,1.8% and -0.6% and 0.5% and 1.3% and -0.126% and -7.2%
same,"Percent change from baseline in body weight, LS mean","Body weight; week 4, 1.5 mg once weekly, n=6",-0.2%
same,"Percent change from baseline in body weight, LS mean","Body weight; week 8, 1.5 mg once weekly, n=6",-0.8%
same,"Percent change from baseline in body weight, LS mean (SE)","Body weight; 1.5 mg once weekly, n=6",−0.9 (1.4) % and -0.9%
same,"Percent change from baseline in body weight, LS mean (SE)","Body weight; 1.5 mg once weekly, n=6, listed as dulaglutide",−0.9%
same,"Body weight (percent CFB): ETD versus placebo, LS mean (90% CI)",Body weight; 1.5 mg once weekly,"0.2 ( −2.8, 3.1) %"
same,Change from baseline to week 12 in LDL cholesterol,[2]; Dulaglutide group,-0.32 mmol/L
same,Change from baseline to week 12 in total cholesterol,[2]; Dulaglutide group,-0.58 mmol/L
same,Change from baseline to week 12 in triglycerides,[2]; Dulaglutide group,-0.58 mmol/L
